Tested on: primary cultured hippocampal neurons
Assay: LC3-eGFP puncta formation assay (autophagy promotion)
Assay type: cell-based, rat
Conditions: rapamycin and HN-1703 at 0.1 μM and 0.5 μM respectively, 12 hours; FIG. 3A
Protocol: Primary neurons culture was performed from the hippocampus of rat (SD, Orient Bio) embryonic 16-day (E16) embryos. The left and right hemispheres of the extracted brain were separated using sterile tweezers under a dissecting microscope, the meninges were peeled off, the hippocampus was cut with No. 55 tweezers, and neural progenitor cells were mechanically dissolved in a Ca^2+/Mg^2+-free HBSS (Invitrogen) solution by pipetting with a pasteur pipette (Falcon, 354647). Undissolved tissues or vascular cells were settled, and then a supernatant was taken to measure the cell number and the isolated cells were seeded at 19,000 cells/cm^2 in a 35 mm culture dish coated with poly-L-ornithine (sigma, P3655) and fibronectin (sigma, F4759). The cells were cultured using a serum-free N2 medium (growth medium) added with 10 ng/mL bFGF (Invitrogen) in a 5% CO2 incubator, and the culture medium was replaced after 6 hours and after 24 hours. After 2 days, when the cells proliferated twice or more, subculture was performed.
After 3 days of the primary neural progenitor cell culture, a process of subculturing with 0.05% trypsin was repeated twice, and DNA electroporation or transfection was performed before seeding. […]
The number of cell nuclei labeled with DAPI and the number of cells expressing green fluorescence by overlapping LC3-eGFP expression and DAPI labeling were measured. The number of eGFP-LC3 puncta was measured per cell, and the signal intensity of puncta was measured using a confocal laser microscope program. […]
The autophagy promoting effect of HN-1703 in neurons differentiated by culturing hippocampal neural progenitor cells from rat embryos (E16) was evaluated by performing an LC3-eGFP puncta formation assay. The neural progenitor cells into which an LC3-eGFP recombinant gene was introduced by electroporation were differentiated into neurons, treated with rapamycin and HN-1703 at concentrations of 0.1 μM and 0.5 μM for 12 hours, respectively, and the puncta of LC3-GFP were scanned with a confocal laser microscope (Zeiss, LSM800) to measure the fluorescence intensity of LC3-eGFP and the number of puncta, and the results were illustrated in FIG. 3. Specifically, FIG. 3A illustrates confocal scanning micrographs of LC3-eGFP puncta formation after treated primary cultured hippocampal neurons overexpressing an LC3-eGFP fusion protein with HN-1703, and quantifying the number and fluorescence intensity of LC3-eGFP puncta per cell, and FIG. 3B illustrates a result of LC3-II turnover analysis.

COc1cc(OC)c2c(=O)c3cc4c(cc3oc2c1)OCO4 [HN-1703, 7,9-dimethoxy-10H-[1,3]dioxolo[4,5-b]xanthen-10-one]
increase of the number of LC3-eGFP puncta compared to a control group: ≥ 85%
increase of the signal intensity of LC3-eGFP puncta compared to the control group: ≥ 45%
